Measured values published in patent US7160903B2, “Sulfonylaminocarboxylic acids” (Sanofi-Aventis Deutschland GmbH, priority 1997, dated 2007).

What was measured:
[1] = biological target: T1, neutrophil collagenase (MMP-8) (Homo sapiens, UniProt P22894); assay: Enzymatic activity of the catalytic domain of neutrophil collagenase (fluorogenic substrate); format: biochemical; details: pH=6.5, 15 min preincubation, fluorescence 328 nm (ex)/393 nm (em), read-out: Neutr. collagenase IC50
T1 construct: enzymatic activity of the catalytic domains of human stromelysin and of neutrophil collagenase; made in house
Protocol: (§1) Preparation and determination of the enzymatic activity of the catalytic domains of human stromelysin and of neutrophil collagenase:
(§2) The enzymes stromelysin (MMP-3) and neutrophil collagenase (MMP-8) were prepared according to Ye et al. (Biochemistry; 31 (1992) pages 11231–11235). To measure the enzyme activity or the enzyme inhibitor action, 70 μl of buffer solution and 10 μl of enzyme solution are incubated for 15 min with 10 μl of a 10% strength (v/v) aqueous dimethyl sulfoxide solution, which optionally contains the enzyme inhibitor. After addition of 10 μl of a 10% strength (v/v) aqueous dimethyl sulfoxide solution which contains 1 mmol/L of the substrate, the enzyme reaction is monitored by fluorescence spectroscopy (328 nm (ex)/393 nm(em)). The enzyme activity is shown as the extinction increase/min. The IC50 values listed in Table 2 are determined as those inhibitor concentrations which in each case led to a 50% inhibition of the enzyme.
(§3) The buffer solution contains 0.05% Brij (Sigma, Deisenhofen, Germany) and also 0.1 mol/L Tris/HCl, 0.1 mol/L NaCl, 0.01 mol/L CaCl2 and 0.1 mol/L piperazine-N,N′-bis[2-ethanesulfonic acid] (pH=6.5). The enzyme solution contains 5 μg/ml of one of the enzyme domains prepared according to Ye et al. The substrate solution contains 1 mmol/L of the fluorogenic substrate (7-methoxycoumarin-4-yl)acetyl-Pro-Leu-Gly-Leu-3-(2′,4′-dinitrophenyl)-L-2,3-diaminopropionyl-Ala-Arg-NH2 (Bachem, Heidelberg, Germany).

[2] = biological target: T2, stromelysin (MMP-3) (Homo sapiens, UniProt P08254); assay: Enzymatic activity of the catalytic domain of human stromelysin (fluorogenic substrate); format: biochemical; details: pH=6.5, 15 min preincubation, fluorescence 328 nm (ex)/393 nm (em)
T2 construct: enzymatic activity of the catalytic domains of human stromelysin and of neutrophil collagenase; made in house
Protocol: as §1, §2, §3

T1 sequence (P22894 100-262 limits assumed): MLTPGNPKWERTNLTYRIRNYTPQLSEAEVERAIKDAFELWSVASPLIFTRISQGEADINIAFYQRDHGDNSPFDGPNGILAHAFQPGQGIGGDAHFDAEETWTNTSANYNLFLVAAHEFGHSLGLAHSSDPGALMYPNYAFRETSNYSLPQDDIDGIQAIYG
T2 sequence (P08254 100-272 limits assumed): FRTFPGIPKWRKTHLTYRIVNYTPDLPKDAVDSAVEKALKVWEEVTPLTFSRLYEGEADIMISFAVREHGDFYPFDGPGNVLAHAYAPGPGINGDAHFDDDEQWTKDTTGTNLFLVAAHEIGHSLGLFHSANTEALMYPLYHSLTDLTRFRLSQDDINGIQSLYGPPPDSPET

Row | IC50 [1] | IC50 [2] | melting point | Compound
1 | 10 nM | 400 nM | 134 °C | O=C(O)[C@@H](CCO)NS(=O)(=O)c1ccc(Oc2ccccc2)cc1 (racemic) [Example 1, N-(Phenoxybenzenesulfonyl) homoserine]
2 | 20 nM | 200 nM |  | C=CC(NS(=O)(=O)c1ccc(-c2ccc(Cl)cc2)cc1)C(=O)O (racemic) [Example 6]
3 | 50 nM | 500 nM |  | O=C(O)C(CSC1=NCCS1)NS(=O)(=O)c1ccc(-c2ccc(Cl)cc2)cc1 (racemic) [Example 19]
4 |  |  | 230 °C | COc1ccc(CC(NS(=O)(=O)c2ccc(-c3ccc(N(C)C)cc3)cc2)C(=O)O)cc1OC (racemic) [Example 24]
5 | 40 nM | 400 nM |  | O=C(O)C(NS(=O)(=O)c1ccc(-c2ccc(Cl)cc2)cc1)c1ccsc1 (racemic) [Example 26]
6 | 10 nM | 100 nM | 176 °C | O=C(O)[C@@H](NS(=O)(=O)c1ccc(Oc2ccccc2)cc1)[C@@H](O)c1ccc2c(c1)OCO2 (racemic) [Example 35]
7 |  |  | 227 to 230 °C | O=C(CCC(NS(=O)(=O)c1ccc(-c2ccccc2)cc1)C(=O)O)Nc1ccccc1 (racemic) [Example 47]
8 |  |  | 212 to 214 °C | CN(C)c1ccc(-c2ccc(S(=O)(=O)NC(CCC(=O)Nc3ccccc3)C(=O)O)cc2)cc1 (racemic) [Example 48]
9 | 40 nM | 800 nM | 174.5 to 175.5 °C | O=C(O)C1CCCCN1S(=O)(=O)c1ccc(-c2ccccc2)cc1 (racemic) [Example 55]
10 | 600 nM | 3000 nM | 195 to 196 °C | O=C(O)C1CCCCN1S(=O)(=O)c1ccc(-n2nccn2)cc1 (racemic) [Example 63]
11 | 3 nM | 100 nM | > 230 °C (dec.) | COc1ccc(CC(NS(=O)(=O)c2ccc(-c3ccc(N(C)C)cc3)cc2)C(=O)O)cc1OC (racemic) [Example 65]
12 | 4 nM | 10 nM | 238 to 239 °C | O=C(CCC(NS(=O)(=O)c1ccc(-c2ccc(Cl)cc2)cc1)C(=O)O)Nc1ccccc1 (racemic) [Example 69]
13 | 3 nM | 5 nM | 234 to 236 °C (dec.) | O=C(CCC(NS(=O)(=O)c1ccc(-c2ccc(N3CCCC3)cc2)cc1)C(=O)O)Nc1ccccc1 (racemic) [Example 76]
14 | 2 nM | 20 nM | > 230 °C (dec.) | O=C(O)C(Cc1c[nH]c2ccc(F)cc12)NS(=O)(=O)c1ccc(-c2ccc(N3CCCC3)cc2)cc1 (racemic) [Example 78]
15 | 10 nM | 100 nM | 171.5 to 172 °C | O=C(O)CCCC(NS(=O)(=O)c1ccc(-c2ccccc2)cc1)C(=O)O (racemic) [Example 82]
16 | 7 nM | 100 nM |  | O=C(O)C(Cc1cccnc1)NS(=O)(=O)c1ccc(-c2ccc(Cl)cc2)cc1 (racemic) [Example 88]
17 | 10 nM | 30 nM |  | O=C(O)C(CCc1c[nH]c2ccccc12)NS(=O)(=O)c1ccc(-c2ccc(Cl)cc2)cc1 (racemic) [Example 105]
18 | 90 nM | 100 nM |  | O=C(O)[C@H]1C[C@@H](O)CN1S(=O)(=O)c1ccc(-c2ccc(Cl)cc2)cc1 [Example 2, (2R)-1-(4-Chlorobiphenylsulfonyl)-4-cis-hydroxyproline]
19 | 200 nM | 20000 nM | 162 to 164 °C | O=C(O)CNS(=O)(=O)c1ccc(Oc2ccc(Cl)cc2)cc1 [Example 3]
20 |  |  | 128 to 130 °C | CN(CC(=O)O)S(=O)(=O)c1ccc(Oc2ccc(Cl)cc2)cc1 [Example 4]
21 | 40 nM | 200 nM |  | O=C(O)[C@@H](CO)NS(=O)(=O)c1ccc(-c2ccc(Cl)cc2)cc1 [Example 7]
22 | 10 nM | 300 nM | 202 to 203 °C | O=C(O)[C@H](CO)NS(=O)(=O)c1ccc(Oc2ccccc2)cc1 [Example 8]
23 | 20 nM | 300 nM | 96 to 98 °C | C[C@H](O)[C@H](NS(=O)(=O)c1ccc(Oc2ccccc2)cc1)C(=O)O [Example 9]
24 | 10 nM | 90 nM |  | CSCC[C@@H](NS(=O)(=O)c1ccc(-c2ccc(Cl)cc2)cc1)C(=O)O [Example 10]
25 |  |  | 115 to 125 °C | CSCC[C@@H](NS(=O)(=O)c1ccc(-c2ccccn2)s1)C(=O)O [Example 12]
26 |  |  | 70 to 76 °C | CSCC[C@@H](NS(=O)(=O)c1ccc(-c2ccon2)s1)C(=O)O [Example 13]
27 | 10 nM | 100 nM |  | C[S+]([O-])CC[C@@H](NS(=O)(=O)c1ccc(-c2ccc(Cl)cc2)cc1)C(=O)O (stereo partly shown) [Example 15]

Row | IC50 [1] | IC50 [2] | melting point | Compound
28 | 7 nM | 70 nM |  | CS(=O)(=O)CC[C@@H](NS(=O)(=O)c1ccc(-c2ccc(Cl)cc2)cc1)C(=O)O [Example 16]
29 | 20 nM | 100 nM |  | CS(=O)(=O)CC[C@H](NS(=O)(=O)c1ccc(-c2ccc(Cl)cc2)cc1)C(=O)O [Example 17]
30 | 600 nM | 1000 nM |  | O=C(c1ccccc1)c1ccc(C[C@@H](NS(=O)(=O)c2ccc(-c3ccc(Cl)cc3)cc2)C(=O)O)cc1 [Example 23]
31 | 40 nM | 200 nM |  | O=C(O)[C@@H](CCc1ccccc1)NS(=O)(=O)c1ccc(-c2ccc(Cl)cc2)cc1 [Example 25]
32 | 60 nM | 300 nM |  | O=C(O)[C@@H](Cc1csc2ccccc12)NS(=O)(=O)c1ccc(-c2ccc(Cl)cc2)cc1 [Example 28]
33 | 9 nM | 80 nM |  | O=C(O)[C@@H](Cc1c[nH]c2ccccc12)NS(=O)(=O)c1ccc(-c2ccc(Cl)cc2)cc1 [Example 29, (R)-N-(4-Chlorobiphenylsulfonyl)tryptophan]
34 |  |  | 183 to 185 °C | O=C(O)[C@H](Cc1c[nH]cn1)NS(=O)(=O)c1ccc(Oc2ccccc2)cc1 [Example 30]
35 | 40 nM | 200 nM |  | O=C(O)[C@H](CSCc1ccccc1)NS(=O)(=O)c1ccc(-c2ccc(Cl)cc2)cc1 [Example 32]
36 | 20 nM | 200 nM |  | O=C(O)C(NS(=O)(=O)c1ccc(-c2ccc(Cl)cc2)cc1)C(O)c1ccccc1 (stereo not shown) [Example 34]
37 | 10 nM | 200 nM |  | O=C(O)C(NS(=O)(=O)c1ccc(-c2ccc(Cl)cc2)cc1)C(O)c1cccs1 (stereo not shown) [Example 36]
38 |  |  | 186.7 °C | O=C(O)C[C@H](NS(=O)(=O)c1ccc(-c2ccccc2)cc1)C(=O)O [Example 37]
39 |  |  | > 55 °C | O=C(O)C[C@@H](NS(=O)(=O)c1ccc(-c2ccccc2)cc1)C(=O)O [Example 38]
40 | 30 nM | 200 nM |  | O=C(C[C@H](NS(=O)(=O)c1ccc(-c2ccc(Cl)cc2)cc1)C(=O)O)OCc1ccccc1 [Example 41]
41 | 30 nM | 400 nM |  | O=C(O)C[C@H](NS(=O)(=O)c1ccc(-c2ccc(Cl)cc2)cc1)C(=O)OCc1ccccc1 [Example 42]
42 |  |  | 105 °C | O=C(O)C[C@@H](C(=O)O)N(Cc1ccncc1)S(=O)(=O)c1ccc(-c2ccccc2)cc1 [Example 43]
43 | 10 nM | 90 nM |  | NC(=O)C[C@@H](NS(=O)(=O)c1ccc(-c2ccc(Cl)cc2)cc1)C(=O)O [Example 44]
44 |  |  | 169 to 171 °C | O=C(O)CCN(CC(=O)O)S(=O)(=O)c1ccc(Oc2ccc(Cl)cc2)cc1 [Example 45]
45 |  |  | 165 °C | CN(C)c1ccc(-c2ccc(S(=O)(=O)N[C@H](CCC(=O)O)C(=O)O)cc2)cc1 [Example 46]
46 |  |  | 213 to 215 °C | CN(C)c1ccc(-c2ccc(S(=O)(=O)N[C@@H](CCC(N)=O)C(=O)O)cc2)cc1 [Example 49]
47 |  |  | 266 °C | O=C(CC[C@H](NS(=O)(=O)c1ccc(-c2ccccc2)cc1)C(=O)O)Nc1ccc(C(=O)O)cc1 [Example 50]
48 | 5 nM | 50 nM |  | NC(=O)CC[C@@H](NS(=O)(=O)c1ccc(-c2ccc(Cl)cc2)cc1)C(=O)O [Example 51]
49 |  |  | 205 to 207 °C | NNC(=O)CC[C@H](NS(=O)(=O)c1ccc(-c2ccccc2)cc1)C(=O)O [Example 59]
50 |  |  | 138 to 139 °C | O=C(O)[C@@H]1CN1S(=O)(=O)c1ccc(-c2ccccc2)cc1 (stereo partly shown) [Example 64]
51 | 20 nM | 600 nM |  | NC(=O)CC[C@@H](NS(=O)(=O)c1ccc(-c2ccccc2)cc1)C(=O)O [Example 72]
52 | 20 nM |  | 182.5 to 183.5 °C | O=C(O)[C@H](CCC(=O)N1CCc2ccccc21)NS(=O)(=O)c1ccc(-c2ccccc2)cc1 [Example 100]
53 |  |  | > 130 °C (dec.) | O=C(O)[C@H](CCC(=O)N1CCc2ccccc21)NS(=O)(=O)c1ccc(-c2ccc(N3CCCC3)cc2)cc1 [Example 101]
54 | 5 nM | 40 nM |  | CP(=O)(O)CC[C@H](NS(=O)(=O)c1ccc(-c2ccc(Cl)cc2)cc1)C(=O)O [Example 104]
